The results in this text go back to BindingDB's records for patent US20230312522 (Sage Therapeutics, 2023).

The target of the test is Cholesterol 24-hydroxylase (Homo sapiens, UniProt Q9Y6A2). The test is described as follows: CYP46A1 Enzyme Assay. The protocol: Briefly, in a 384-well plate format, 10 uL per well of an enzyme-substrate mixture of CYP46A1 (5 uM final concentration) and Testosterone ([…]) were dispensed to wells containing test compound. For CYP46A1 titration, 5 uL per well of serially diluted CYP46A1 (concentrations including 10 uM, 5 uM, and 2.5 uM) and Testosterone ([…]) were dispensed. For Testosterone titration, 5 uL per well of serially diluted Testosterone (concentrations including 10 uM, 5 uM, and 2.5 uM) and CYP46A1 (concentration of 5 uM) were dispensed. The plates were centrifuged at 1000 rpm for 30 seconds, and then sealed and incubated at 37 C. for 30 minutes. The plate was removed from the incubator, and then 10 uL per well of NADPH-generating system were dispensed to initiate the reaction. The plates were incubated at 37 C. for 15 minutes, added with 80 uL per well of 100% methanol consisting 1 ng/ml diclofenac as internal standard, and then transferred for HPLC-MS.
Chain of Cholesterol 24-hydroxylase (Q9Y6A2 whole entry): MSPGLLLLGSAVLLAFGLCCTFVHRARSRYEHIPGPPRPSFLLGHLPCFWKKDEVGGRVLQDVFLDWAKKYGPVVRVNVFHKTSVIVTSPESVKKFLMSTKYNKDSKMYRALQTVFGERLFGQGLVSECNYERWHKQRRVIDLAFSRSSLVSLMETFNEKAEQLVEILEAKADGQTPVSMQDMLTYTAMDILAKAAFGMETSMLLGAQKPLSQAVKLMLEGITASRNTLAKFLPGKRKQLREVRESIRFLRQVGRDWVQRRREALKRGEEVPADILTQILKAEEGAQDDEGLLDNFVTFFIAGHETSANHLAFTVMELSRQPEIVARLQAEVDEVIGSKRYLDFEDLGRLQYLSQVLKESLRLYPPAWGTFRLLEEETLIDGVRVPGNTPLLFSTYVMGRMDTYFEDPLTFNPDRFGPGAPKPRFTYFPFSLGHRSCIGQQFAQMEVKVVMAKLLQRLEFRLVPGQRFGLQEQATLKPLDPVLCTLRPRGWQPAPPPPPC
`O=C(c1cccnc1-c1ccncc1)N1CCC(F)(Cc2ccc(Cl)cn2)CC1` [US20230312522, Compound 38] showed an IC50 of under 0.1 µM.

The compound `O=C(c1cccnc1-c1ccncn1)N1CCC(F)(Cc2ncc(C(F)(F)F)cn2)CC1` [US20230312522, Compound 56] showed an IC50 of over 1 µM.

For the compound `O=C(c1cccnc1-c1ccncn1)N1CCC(F)([C@H](O)c2ccc(C(F)(F)F)cc2)CC1` [US20230312522, Compound 13], the IC50 was under 0.1 µM.

Consider `O=C(c1cccnc1-c1ccncc1)N1CCC(F)(Cc2ccc(C(F)(F)F)nc2)CC1` [US20230312522, Compound 35], for which the IC50 was under 0.1 µM.

`C[C@H](c1cc(F)cc(F)c1)C1(F)CCN(C(=O)c2cccnc2-c2ccncn2)CC1` [US20230312522, Compound 31]: the IC50 was under 0.1 µM.

Take `O=C(c1cccnc1-c1ccncn1)N1CCC(F)(Cc2ccc(C(F)(F)F)cc2F)CC1` [US20230312522, Compound 28]: the IC50 is under 0.1 µM.

Consider `O=C(c1cccnc1-c1ccncn1)N1CCC(F)(Cc2ccc(Cl)cc2)CC1` [US20230312522, Compound 29], for which the IC50 was under 0.1 µM.

As to `O=C(c1cccnc1-c1ccncn1)N1CCC(F)(c2ccccc2)CC1` [US20230312522, Compound 8], the IC50 is over 1 µM.

`O=C(c1cccnc1-c1ccncn1)N1CCC(F)(Cc2ccc(Cl)cn2)CC1` [US20230312522, Compound 18] gave an IC50 of under 0.1 µM.

`O=C(c1cccnc1-c1ccncn1)N1CCC(F)(Cc2ccc(F)cc2F)CC1` [US20230312522, Compound 19] gave an IC50 of under 0.1 µM.

Turning to `O=C(c1cccnc1-c1ccncc1)N1CCC(F)(Cc2ccc(CF)nc2)CC1` [US20230312522, Compound 54], the IC50 is under 0.1 µM.

In the case of `C[C@@H](c1ccc(C(F)(F)F)cc1)C1(F)CCN(C(=O)c2cccnc2-c2ccncn2)CC1` [US20230312522, Compound 34], the IC50 was under 0.1 µM.

`O=C(c1cccnc1-c1ccncc1)N1CCC(F)(Cc2cnccn2)CC1` [US20230312522, Compound 45] returned an IC50 of over 1 µM.

For `Cc1ccc(CC2(F)CCN(C(=O)c3cccnc3-c3ccncc3)CC2)cn1` [US20230312522, Compound 57], the concentration for half-maximal inhibition (IC50) was under 0.1 µM.

In turn, `O=C(c1cccnc1-c1ccncn1)N1CCC(F)(Cc2cc(C(F)(F)F)c(Cl)cn2)CC1` [US20230312522, Compound 39] came in with an IC50 of under 0.1 µM.

On to `O=C(c1cccnc1-c1ccncc1)N1CCC(F)(Cc2ccc(C(F)F)nc2)CC1` [US20230312522, Compound 55], for which the IC50 was under 0.1 µM.

Regarding `O=C(c1cccnc1-c1ccncn1)N1CCC(F)(Cc2ccc(C(F)(F)F)nc2)CC1` [US20230312522, Compound 23], the IC50 is under 0.1 µM.

Consider `O=C(c1cccnc1-c1ccncn1)N1CCC(F)([C@@H](O)c2ccc(C(F)(F)F)cc2)CC1` [US20230312522, Compound 14], for which the IC50 is under 0.1 µM.

Compound `O=C(c1cccnc1-c1ccncn1)N1CCC(F)(Cc2cc(F)cc(F)c2)CC1` [US20230312522, Compound 20] displayed an IC50 of under 0.1 µM.

In the case of `O=C(c1cccnc1-c1ccncn1)N1CCC(F)(Cc2cccc(C(F)(F)F)n2)CC1` [US20230312522, Compound 24], the IC50 is under 0.1 µM.

`O=C(c1cccnc1-c1ccncn1)N1CCC(F)(Cc2ccc(C(F)(F)F)cn2)CC1` [US20230312522, Compound 22] displayed an IC50 of under 0.1 µM.

Take `Cc1cnc(CC2(F)CCN(C(=O)c3cccnc3-c3ccncc3)CC2)cn1` [US20230312522, Compound 52]: the half-maximal inhibitory concentration (IC50) is under 0.1 µM.

As for `O=C(c1cccnc1-c1ccncn1)N1CCC(F)(Cc2ccc(CF)nc2)CC1` [US20230312522, Compound 51], the IC50 is under 0.1 µM.

As for `Cc1ccc(CC2(F)CCN(C(=O)c3cccnc3-c3ccncc3)CC2)nc1` [US20230312522, Compound 43], the IC50 is under 0.1 µM.

Turning to `O=C(c1cccnc1-c1ccncn1)N1CCC(F)(Cc2c(F)cc(F)cc2F)CC1` [US20230312522, Compound 26], the IC50 was under 0.1 µM.

As to `O=C(c1cccnc1-c1ccncn1)N1CCC(F)(Cc2ccc(Cl)nc2)CC1` [US20230312522, Compound 46], the IC50 was under 0.1 µM.

`C[C@@H](c1cc(F)cc(F)c1)C1(F)CCN(C(=O)c2cccnc2-c2ccncn2)CC1` [US20230312522, Compound 32]: the IC50 is under 0.1 µM.

For `C[C@H](c1ccc(C(F)(F)F)cc1)C1(F)CCN(C(=O)c2cccnc2-c2ccncn2)CC1` [US20230312522, Compound 33], the IC50 was under 0.1 µM.

`O=C(c1cccnc1-c1ccncc1)N1CCC(F)(Cc2ccc(Cl)nc2)CC1` [US20230312522, Compound 47] gave an IC50 of under 0.1 µM.

A word on the IC50: it is the midpoint of a concentration-inhibition curve. A high value points to a need for much substance.
